# Assays:
# [1] = target: rat cathepsin B (Rattus norvegicus, UniProt P00787); assay: In vitro assay for inhibition of cathepsin B; assay type: biochemical; conditions: r rat cathepsin B, substrate N-CBZ-Phe-Arg-AMC, pH 5.1, 10 min incubation at room temperature
# Procedure: In Vitro Assay Procedure for Cathepsin B
# The compounds of formula I were tested for inhibition of cathepsin B using the known method (A. J. Barret et al., Biochem. J. 1982, 201, 189-198). To a 170 μl of enzyme-buffer mixture (enzyme: r rat cathepsin B, diluted to give approximate 10 F units/min, buffer: 56 mM sodium acetate, 1.124 mM EDTA, 10 mM DTT, pH 5.1) a 10 μL of inhibitor (dissolved in DMSO) was added. After 10 min of incubation at room temperature, a 20 μl of 5 mM substrate (N-CBZ-Phe-Arg-AMC, dissolved in DMSO) was added to initiate reaction. Reading is followed up for 10 min at the fluoroscan reader (excitation at 380 nm emission at 460 nm).
# (§1) A plot of percentage of inhibition vs inhibitor concentration is obtained, and IC50 is determined using a linear regression calculations (concentration of inhibitor which will give 50% inhibition).
# [2] = target: rat cathepsin L (Rattus norvegicus, UniProt P07154); assay: In vitro assay for inhibition of cathepsin L; assay type: biochemical; conditions: r rat cathepsin L, substrate N-CBZ-Phe-Arg-AMC, pH 5.0, 10 min incubation at room temperature
# Procedure: In Vitro Assay Procedure for Cathepsin L
# To a 170 μl of enzyme-buffer mixture (enzyme: r rat cathepsin L, diluted to give approximate 15 F units/min, buffer: 58.8 mM sodium citrate, 1.18 mM EDTA, 235 mM sodium chloride, 5 mM […], pH 5.0) a 10 μL of inhibitor (dissolved in DMSO) was added. After 10 min of incubation at room temperature, a 20 μl of 1 mM substrate (N-CBZ-Phe-Arg-AMC, dissolved in DMSO) was added to initiate reaction. Reading is followed up for 10 min at the fluoroscan reader (excitation at 380 nm emission at 460 nm).
# as §1
# [3] = target: T1, cathepsin K (Homo sapiens, UniProt P43235); assay: In vitro assay for inhibition of cathepsin K; assay type: biochemical; conditions: r cathepsin K, substrate N-CBZ-Phe-Arg-AMC, pH 5.5, 10 min incubation at room temperature
# T1 sequence (P43235 115-329): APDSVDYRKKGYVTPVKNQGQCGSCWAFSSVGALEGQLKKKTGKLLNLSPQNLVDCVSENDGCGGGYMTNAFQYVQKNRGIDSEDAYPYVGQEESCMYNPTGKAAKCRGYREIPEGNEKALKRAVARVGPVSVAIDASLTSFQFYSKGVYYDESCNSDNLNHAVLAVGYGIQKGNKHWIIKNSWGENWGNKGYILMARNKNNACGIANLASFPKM
# Procedure: In Vitro Assay Procedure for Cathepsin K
# (§2) To a 170 μl of enzyme-buffer mixture (enzyme: r cathepsin K, diluted to give approximate 30 F units/min, buffer: 100 mM sodium acetate, 5 mM EDTA, 20 mM L-cysteine, 0.01% Brij, pH 5.5) a 10 μL of inhibitor (dissolved in DMSO) was added. After 10 min of incubation at room temperature, a 20 μl of 2.7 mM substrate (N-CBZ-Phe-Arg-AMC, dissolved in DMSO) was added to initiate reaction. Reading is followed up for 10 min at the fluoroscan II plate reader (excitation at 380 nm emission at 460 nm).
# as §1
# [4] = target: cathepsin S (Homo sapiens, UniProt P25774); assay: In vitro assay for inhibition of cathepsin S; assay type: biochemical; conditions: r cathepsin S, substrate N-CBZ-Val-Val-Arg-AMC, pH 6.5, 10 min incubation at room temperature
# Procedure: In Vitro Assay Procedure for Cathepsin S
# as §2, with “S,” for “K,”, “phosphate, 1 mM EDTA,” for “acetate,”, “DTT,” for “EDTA, 20 mM L-cysteine,”, “6.5)” for “5.5)”, “1.2” for “2.7”, “(N-CBZ-Val-Val-Arg-AMC,” for “(N-CBZ-Phe-Arg-AMC,”
# as §1
# rat cathepsin B, sequence (P00787 80-333): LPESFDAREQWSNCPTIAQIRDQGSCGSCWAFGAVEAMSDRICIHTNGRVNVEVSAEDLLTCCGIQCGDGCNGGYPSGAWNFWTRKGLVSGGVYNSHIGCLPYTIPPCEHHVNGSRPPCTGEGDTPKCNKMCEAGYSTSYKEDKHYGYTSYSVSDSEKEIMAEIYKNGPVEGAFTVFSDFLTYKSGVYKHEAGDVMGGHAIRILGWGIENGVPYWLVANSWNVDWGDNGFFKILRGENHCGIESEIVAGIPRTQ
# rat cathepsin L, sequence (P07154 114-334): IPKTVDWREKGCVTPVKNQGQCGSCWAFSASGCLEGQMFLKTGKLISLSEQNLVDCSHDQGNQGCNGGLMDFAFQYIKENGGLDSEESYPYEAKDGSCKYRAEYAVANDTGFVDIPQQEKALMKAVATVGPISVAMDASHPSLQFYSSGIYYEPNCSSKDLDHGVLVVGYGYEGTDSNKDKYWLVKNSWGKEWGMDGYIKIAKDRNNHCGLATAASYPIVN
# cathepsin S, sequence (P25774 115-331, species assumed): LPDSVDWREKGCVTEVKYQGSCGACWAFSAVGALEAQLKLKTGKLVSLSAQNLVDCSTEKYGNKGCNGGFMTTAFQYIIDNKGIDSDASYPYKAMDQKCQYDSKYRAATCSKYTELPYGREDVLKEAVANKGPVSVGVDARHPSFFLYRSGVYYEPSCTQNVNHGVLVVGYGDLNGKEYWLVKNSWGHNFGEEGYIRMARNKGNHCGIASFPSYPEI
Compound,IC50 [1],IC50 [2],melting point,IC50 [3],IC50 [4]
"NC=C(NC(=O)[C@H](Cc1ccccc1)NC(=O)OCc1ccccc1)C(N)=O [Example 3, 2-(2S-2-Benzyloxycarbonylamino-2-benzyl-acetamido)-3-amino-acrylamide]",1.42 µM,0.0055 µM,127 to 135 °C,0.23 µM,0.26 µM
"NC=C(NC(=O)[C@H](Cc1ccccc1)NC(=O)CCc1ccccc1)C(N)=O [Example 4, 2-[2S-2-(3-Phenylpropionoyl)amino-2-benzyl-acetamido]-3-amino-acrylamide]",2.63 µM,0.015 µM,75 to 80 °C,1.2 µM,0.0087 µM
"CC(C)C[C@H](NC(=O)OCc1ccccc1)C(=O)NC(=CNCc1ccccc1)C(N)=O [Example 5, 2-(2S-2-Benzyloxycarbonylamino-2-isopropylmethyl-acetamido)-3-benzylamino-acrylamide]",2.28 µM,0.064 µM,115 to 120 °C,0.0031 µM,0.061 µM
"CC(C)C[C@H](NC(=O)OCc1ccccc1)C(=O)NC(=CN1CCOCC1)C(N)=O [Example 6, 2-(2S-2-Benzyloxycarbonylamino-2-isopropylmethyl-acetamido)-3-(morpholin-4-yl)-acrylamide]",0.37 µM,0.075 µM,120 to 130 °C,0.003 µM,0.05 µM
"CC(C)C[C@H](NC(=O)OCc1ccccc1)C(=O)NC(=CNc1ccccc1)C(N)=O [Example 8, 2-(2S-2-Benzyloxycarbonylamino-2-isoproplmethyl-acetamido)-3-phenylamino-acrylamide]",37.1 µM,2.36 µM,199 to 200 °C,0.33 µM,6.9 µM
"CC(C)C[C@H](NC(=O)OCc1ccccc1)C(=O)N/C(=C\N1CCCCC1)C(N)=O [Example 9, 2-(2S-2-Benzyloxycarbonylamino-2-isopropylmethyl-acetamido)-3-piperidino-acrylamide]",0.89 µM,0.062 µM,99 to 103 °C,0.014 µM,0.05 µM
"NC(=O)C(NC(=O)[C@H](Cc1ccccc1)NC(=O)CCc1ccccc1)C(O)O (stereo partly drawn) [Example 14, 2-[2S-2-(3-Phenylpropionoylamino)-2-benzyl-acetamido]-3,3-dihydroxy-propionamide]",0.98 µM,0.004 µM,105 to 110 °C,1.13 µM,0.004 µM
"CC(C)C[C@H](NC(=O)OCc1ccccc1)C(=O)N/C(=C\N1CCN(C)CC1)C(N)=O [Example 17, 2-(2S-2-Benzyloxycarbonylamino-2-isopropylmethyl-acetamido)-3-(4-methylpiperazino)-acrylamide]",1.9 µM,0.23 µM,93.5 to 95 °C,0.019 µM,0.18 µM
"CC(C)C[C@H](NC(=O)OCc1ccccc1)C(=O)N/C(=C\N1CCC(NC(=O)OC(C)(C)C)C1)C(N)=O (stereo partly drawn) [Example 18, 2-(2S-2-Benzyloxycarbonylamino-2-isopropylmethyl-acetamido)-3-(3-tert-butoxycarbonylamino-pyrrolidino)-acrylamide]",1.9 µM,0.12 µM,140 to 142 °C,0.0096 µM,0.039 µM
"CC(=O)N/C=C(/NC(=O)[C@H](CC1CCCCC1)NC(=O)OCc1ccccc1)C(N)=O [Example 19a, (2E)-(2S-2-Benzyloxycarbonylamino-2-cyclohexymethyl-acetamido)-3-acetamido-acrylamide]",> 58 µM,> 58 µM,140 to 142 °C,> 58 µM,1.86 µM

# Second part, the molecule after the results:
IC50 [1],IC50 [2],melting point,IC50 [3],IC50 [4],Compound
1.96 µM,0.23 µM,89 to 92 °C,0.012 µM,0.18 µM,"CC(C)C[C@H](NC(=O)OCc1ccccc1)C(=O)NC(=CNCCO)C(N)=O [Example 7, 2-(2S-2-Benzyloxycarbonylamnino-2-isopropylmnethyl-acetamido)-3-(2-hydroxyethylamnino)-acrylamide]"
45.2 µM,8.62 µM,73 to 76 °C,1.42 µM,0.013 µM,"CC(=O)N/C=C(/NC(=O)[C@H](CC(C)C)NC(=O)OCc1ccccc1)C(N)=O [Example 10a, (2E)-(2S-2-Benzyloxycarbonylamino-2-isopropylmethyl-acetamido)-3-acetamido-acrylamide]"
2.4 µM,0.11 µM,86 to 90 °C,0.014 µM,0.015 µM,"CC(C)C[C@H](NC(=O)OCc1ccccc1)C(=O)NC(C(N)=O)C(O)O (stereo partly drawn) [Example 11, 2-(2S-2-Benzyloxycarbonylamino-2-isopropylmethyl-acetamido)-3,3-dihydroxy-propionamide]"
9.5 µM,0.17 µM,105 to 115 °C,0.018 µM,0.075 µM,"CC(C)C[C@H](NC(=O)OCc1ccccc1)C(=O)N/C(=C/O)C(N)=O [Example 15, 2-(2S-2-Benzyloxycarbonylamino-2-isopropylmethyl-acetamido)-3-hydroxy-acrylamide]"

# Source: patent US6635621B1, “Cysteine protease inhibitors” (Naeja Pharmaceutical Inc., priority 1999, dated 2003)
